Several values for one entry are separate records, joined by “and”; a condition that tells them apart may be missing. Equal values may be shown once.
Species: Rattus norvegicus
Format: toxicity, organism-based, Sprague-Dawley
Details: in vivo, 24 h, vehicle 100 % SALINE; for ABSOLUTE SEGMENTED NEUTROPHIL / BASOPHIL / EOSINOPHIL / ERYTHROCYTE COUNT / HEMATOCRIT / HEMOGLOBIN / LEUKOCYTE COUNT / LYMPHOCYTE / MEAN CORPUSCULAR HEMOGLOBIN / MONOCYTE / NEUTROPHIL / NUCLEATED RED BLOOD CELLS / PLATELET COUNT / ABSOLUTE BASOPHIL / ABSOLUTE EOSINOPHIL / ABSOLUTE LYMPHOCYTE / ABSOLUTE MONOCYTE / MEAN CORPUSCULAR HEMOGLOBIN CONCENTRATION / MEAN CORPUSCULAR VOLUME: tissue Blood; for ALANINE AMINOTRANSFERASE / ALBUMIN / ALKALINE PHOSPHATASE / ASPARTATE AMINOTRANSFERASE / BLOOD UREA NITROGEN / CARBON DIOXIDE / CHLORIDE / CHOLESTEROL / CREATINE PHOSPHOKINASE / CREATININE / GLUCOSE / LACTATE DEHYDROGENASE / PHOSPHORUS / POTASSIUM / SODIUM / TOTAL BILIRUBIN / TOTAL PROTEIN / URIC ACID / LIPASE: tissue Plasma
[1] = sc, 0 mg/kg, vehicle control, route mini-PUMP - SUBCUTANEOUS, dose level Control, time 1 day
[2] = sc, 2 mg/kg, route mini-PUMP - SUBCUTANEOUS, dose level High, time 1 day
[3] = sc, […], route mini-PUMP - SUBCUTANEOUS, dose 4.2 mg/Kg, dose level M1, time 1 day
[4] = po, 0 mg/kg, vehicle control, route oral GAVAGE, dose level Control, time 1 day
[5] = po, […], route oral GAVAGE, dose 7.5 mg/Kg, dose level High, time 1 day

Description: DrugMatrix - Regimen: Single

## CC(C)NCC(O)c1ccc(O)c(O)c1 (stereo not given) [ISOPROTERENOL]
[1]
  ABSOLUTE SEGMENTED NEUTROPHIL: 1753.5 CELLS/uL
  BASOPHIL: 0.4% and 0%
  EOSINOPHIL: 0.3% and 0.17%
  ERYTHROCYTE COUNT: 6.25 x10E6/uL and 5.64 x10E6/uL
  HEMATOCRIT: 41.8% and 34.52%
  HEMOGLOBIN: 13.33 G/DL and 12.68 G/DL
  LEUKOCYTE COUNT: 11.55 x10E3/uL and 13 x10E3/uL
  LYMPHOCYTE: 72.6% and 84.5%
  MEAN CORPUSCULAR HEMOGLOBIN: 21.37 pg and 22.5 pg
  MONOCYTE: 2.4% and 1.83%
  NEUTROPHIL: 23.4% and 13.5%
  NUCLEATED RED BLOOD CELLS: 0.17 /100WBC
  PLATELET COUNT: 1265.33 x10E3/uL and 679.17 x10E3/uL
  ALANINE AMINOTRANSFERASE: 40.33 u/L and 42.67 u/L
  ALBUMIN: 3.63 G/DL and 3.77 G/DL
  ALKALINE PHOSPHATASE: 385.33 u/L and 291.17 u/L
  ASPARTATE AMINOTRANSFERASE: 79.33 u/L and 74.5 u/L
  BLOOD UREA NITROGEN: 13.33 mg/dL and 15.33 mg/dL
  CARBON DIOXIDE: 40.67 mmol/L and 30 mmol/L
  CHLORIDE: 103 MEQ/L and 100.83 MEQ/L
  CHOLESTEROL: 86.33 mg/dL and 65.33 mg/dL
  CREATINE PHOSPHOKINASE: 190.33 u/L
  CREATININE: 0.4 mg/dL and 0.15 mg/dL
  GLUCOSE: 165.67 mg/dL and 179.83 mg/dL
  LACTATE DEHYDROGENASE: 103.33 u/L and 162.67 u/L
  PHOSPHORUS: 11.7 mg/dL and 12.2 mg/dL
  POTASSIUM: 5.5 MEQ/L and 5.73 MEQ/L
  SODIUM: 145 MEQ/L and 144.7 MEQ/L
  TOTAL BILIRUBIN: 0.27 mg/dL and 0.15 mg/dL
  TOTAL PROTEIN: 5.87 G/DL
  URIC ACID: 1 mg/dL and 1.93 mg/dL
[2]
  ABSOLUTE BASOPHIL: 13.3 cells/µL
  ABSOLUTE EOSINOPHIL: 56.7 cells/µL
  ABSOLUTE LYMPHOCYTE: 4960 cells/µL
  ABSOLUTE MONOCYTE: 150 cells/µL
  BASOPHIL: 0.2%
  EOSINOPHIL: 0.83%
  ERYTHROCYTE COUNT: 5.65 x10E6/uL
  HEMATOCRIT: 36.77%
  HEMOGLOBIN: 11.77 G/DL
  LEUKOCYTE COUNT: 6.69 x10E3/uL
  LYMPHOCYTE: 74.03%
  MEAN CORPUSCULAR HEMOGLOBIN: 20.8 pg
  MEAN CORPUSCULAR HEMOGLOBIN CONCENTRATION: 31.97 G/DL
  MEAN CORPUSCULAR VOLUME: 65.1 fL
  MONOCYTE: 2.3%
  NEUTROPHIL: 22.1%
  PLATELET COUNT: 1167.67 x10E3/uL
  ALANINE AMINOTRANSFERASE: 33 u/L
  ALBUMIN: 3.6 G/DL
  ALKALINE PHOSPHATASE: 400 u/L
  ASPARTATE AMINOTRANSFERASE: 86.67 u/L
  BLOOD UREA NITROGEN: 14.67 mg/dL
  CARBON DIOXIDE: 33 mmol/L
  CHLORIDE: 106.67 MEQ/L
  CHOLESTEROL: 105 mg/dL
  CREATINE PHOSPHOKINASE: 281.33 u/L
  CREATININE: 0.6 mg/dL
  GLUCOSE: 99.33 mg/dL
  LACTATE DEHYDROGENASE: 93 u/L
  LIPASE: 24.67 u/L
  PHOSPHORUS: 11.33 mg/dL
  POTASSIUM: 5.6 MEQ/L
  SODIUM: 146 MEQ/L
  TOTAL BILIRUBIN: 0.2 mg/dL
  TOTAL PROTEIN: 5.87 G/DL
  URIC ACID: 0.93 mg/dL
[3]
  ABSOLUTE EOSINOPHIL: 59.67 CELLS/uL
  ABSOLUTE LYMPHOCYTE: 9880 CELLS/uL
  ABSOLUTE MONOCYTE: 232.33 CELLS/uL
  ABSOLUTE SEGMENTED NEUTROPHIL: 3561.33 CELLS/uL
  BASOPHIL: 0%
  EOSINOPHIL: 0.33%
  ERYTHROCYTE COUNT: 5.17 x10E6/uL
  HEMATOCRIT: 30.7%
  HEMOGLOBIN: 11.47 G/DL
  LEUKOCYTE COUNT: 13.73 x10E3/uL
  LYMPHOCYTE: 71.67%
  MEAN CORPUSCULAR HEMOGLOBIN: 22.2 pg
  MEAN CORPUSCULAR HEMOGLOBIN CONCENTRATION: 37.33 G/DL
  MEAN CORPUSCULAR VOLUME: 59.43 fL
  MONOCYTE: 1.67%
  NEUTROPHIL: 26.33%
  NUCLEATED RED BLOOD CELLS: 0 /100WBC
  PLATELET COUNT: 1159 x10E3/uL
  ALANINE AMINOTRANSFERASE: 55.33 u/L
  ALBUMIN: 3.73 G/DL
  ALKALINE PHOSPHATASE: 326.67 u/L
  ASPARTATE AMINOTRANSFERASE: 83 u/L
  BLOOD UREA NITROGEN: 14 mg/dL
  CARBON DIOXIDE: 28.67 mmol/L
  CHLORIDE: 100.67 MEQ/L
  CHOLESTEROL: 89.67 mg/dL
  CREATININE: 0.13 mg/dL
  GLUCOSE: 154 mg/dL
  LACTATE DEHYDROGENASE: 126.67 u/L
  LIPASE: 8.67 u/L
  PHOSPHORUS: 14.57 mg/dL
  POTASSIUM: 6.55 MEQ/L
  SODIUM: 144.37 MEQ/L
  TOTAL BILIRUBIN: 0.1 mg/dL
  TOTAL PROTEIN: 6.03 G/DL
  URIC ACID: 2.43 mg/dL

## Nc1ncnc2c1ncn2[C@@H]1O[C@H](CO)[C@@H](O)[C@H]1F [2'-BETA-FLUORO-2',3'-DEOXYADENOSINE]
[4]
  ABSOLUTE BASOPHIL: 73.3 cells/µL
  ABSOLUTE EOSINOPHIL: 86.7 cells/µL
  ABSOLUTE LYMPHOCYTE: 8400 cells/µL
  ABSOLUTE MONOCYTE: 350 cells/µL
  BASOPHIL: 0.63%
  EOSINOPHIL: 0.73%
  ERYTHROCYTE COUNT: 6.55 x10E6/uL
  HEMATOCRIT: 42.83%
  HEMOGLOBIN: 13.6 G/DL
  LEUKOCYTE COUNT: 11.33 x10E3/uL
  LYMPHOCYTE: 74.77%
  MEAN CORPUSCULAR HEMOGLOBIN: 20.77 pg
  MEAN CORPUSCULAR HEMOGLOBIN CONCENTRATION: 31.7 G/DL
  MEAN CORPUSCULAR VOLUME: 65.53 fL
  MONOCYTE: 3%
  NEUTROPHIL: 20.2%
  PLATELET COUNT: 1394.33 x10E3/uL
  ALANINE AMINOTRANSFERASE: 34 u/L
  ALBUMIN: 4.03 G/DL
  ALKALINE PHOSPHATASE: 345.33 u/L
  ASPARTATE AMINOTRANSFERASE: 69.67 u/L
  BLOOD UREA NITROGEN: 14.33 mg/dL
  CARBON DIOXIDE: 46 mmol/L
  CHLORIDE: 102.67 MEQ/L
  CHOLESTEROL: 85 mg/dL
  CREATINE PHOSPHOKINASE: 292 u/L
  CREATININE: 0.2 mg/dL
  GLUCOSE: 168 mg/dL
  LACTATE DEHYDROGENASE: 114.33 u/L
  LIPASE: 13 u/L
  PHOSPHORUS: 11.2 mg/dL
  POTASSIUM: 7.07 MEQ/L
  SODIUM: 144.67 MEQ/L
  TOTAL BILIRUBIN: 0.27 mg/dL
  TOTAL PROTEIN: 6.57 G/DL
  URIC ACID: 0.73 mg/dL
[5]
  ABSOLUTE BASOPHIL: 36.7 cells/µL
  ABSOLUTE EOSINOPHIL: 40 cells/µL
  ABSOLUTE LYMPHOCYTE: 7660 cells/µL
  ABSOLUTE MONOCYTE: 240 cells/µL
  BASOPHIL: 0.37%
  EOSINOPHIL: 0.43%
  ERYTHROCYTE COUNT: 7.06 x10E6/uL
  HEMATOCRIT: 46.1%
  HEMOGLOBIN: 14.4 G/DL
  LEUKOCYTE COUNT: 9.56 x10E3/uL
  LYMPHOCYTE: 79.8%
  MEAN CORPUSCULAR HEMOGLOBIN: 20.4 pg
  MEAN CORPUSCULAR HEMOGLOBIN CONCENTRATION: 31.2 G/DL
  MEAN CORPUSCULAR VOLUME: 65.37 fL
  MONOCYTE: 2.57%
  NEUTROPHIL: 16.23%
  PLATELET COUNT: 1451.67 x10E3/uL
  ALANINE AMINOTRANSFERASE: 40.67 u/L
  ALBUMIN: 4.03 G/DL
  ALKALINE PHOSPHATASE: 348 u/L
  ASPARTATE AMINOTRANSFERASE: 71.67 u/L
  BLOOD UREA NITROGEN: 15 mg/dL
  CARBON DIOXIDE: 42.67 mmol/L
  CHLORIDE: 103.33 MEQ/L
  CHOLESTEROL: 98.67 mg/dL
  CREATINE PHOSPHOKINASE: 439.67 u/L
  CREATININE: 0.3 mg/dL
  GLUCOSE: 185.67 mg/dL
  LACTATE DEHYDROGENASE: 90 u/L
  LIPASE: 12 u/L
  PHOSPHORUS: 11.67 mg/dL
  POTASSIUM: 6.3 MEQ/L
  SODIUM: 146 MEQ/L
  TOTAL BILIRUBIN: 0.27 mg/dL
  TOTAL PROTEIN: 6.7 G/DL
  URIC ACID: 0.97 mg/dL

Source: ChEMBL document CHEMBL3885881, “DrugMatrix”
